# Source: patent publication US9724352B2, “Pyrrolo[2,1-F[1,2,4]triazine compounds, preparation methods and applications thereof” (Shanghai Institute of Materia Medica, Chinese Academy of …, priority 2012, dated 2017)
# pIC50: −log10 of the molar value.
# Assays:
# [1] = molecular target: PI3Kα (Homo sapiens (Human), UniProt P42336); assay: Inhibition on PI3K kinase activity (Kinase-Glo Plus luminescent assay); type: biochemical; conditions: 2 μM ATP, 1 hour at room temperature
# Method: The activity of purified kinase was detected with Kinase-Glo® Plus kinase luminescent assay by measuring the amount of the remaining […] in the solution after the kinase reaction was completed. […] After reaction was performed for 1 hour at room temperature, 10 μL of Kinase Glo-Plus mixture was added and incubated for 1 hour to quench the reaction.
# [2] = system: human rhabdomyosarcoma Rh30 cells; assay: Proliferation of Rh30 cells (sulforhodamine B); type: cell-based; conditions: Homo sapiens, Rh30, 72 h; read-out: IC50 against proliferation of Rh30 cells
# Method: Rh30 cells were seeded in a 96-well plate at 3000 cells/well. After the cells adhered, tested compounds at concentration of 10, 3, 1, 0.3, or 0.1 μM were added, and incubated for 72 h. The culture media were discarded and cells were fixed with trichloroacetic acid. After washed with distilled water for five times and dried, sulfonylrhodamine B was added. After washed with 1% glacial acetic acid for five times and dried, trihydroxymethylaminomethane buffer was added. OD value was measured by using a microplate reader at a wavelength of 560 nm.
# [3] = system: B-BT474; assay: Proliferation of human cancer cell panel; type: cell-based; conditions: read-out: inhibitory activity on proliferation
# From the text: (§1) I-30 and I-33 were selected to test their activity on the proliferation of human cancer cells originated from different tissue types.
# [4] = system: B-MCF-7; assay: Proliferation of human cancer cell panel; type: cell-based; conditions: read-out: inhibitory activity on proliferation
# From the text: as §1
# [5] = system: LG-NCI-H23; assay: Proliferation of human cancer cell panel; type: cell-based; conditions: read-out: inhibitory activity on proliferation
# From the text: as §1
# [6] = system: LG-NCI-H460; assay: Proliferation of human cancer cell panel; type: cell-based; conditions: read-out: inhibitory activity on proliferation
# From the text: as §1
# [7] = system: O-SKOV-3; assay: Proliferation of human cancer cell panel; type: cell-based; conditions: read-out: inhibitory activity on proliferation
# From the text: as §1
# [8] = system: P-PC-3; assay: Proliferation of human cancer cell panel; type: cell-based; conditions: read-out: inhibitory activity on proliferation
# From the text: as §1
# [9] = system: colon cancer cells C-HCT-116; assay: Proliferation of human cancer cell panel; type: cell-based; conditions: read-out: inhibitory activity on proliferation
# From the text: as §1
# [10] = system: colorectal cancer cells C-LOVO; assay: Proliferation of human cancer cell panel; type: cell-based; conditions: read-out: inhibitory activity on proliferation
# From the text: as §1
# [11] = system: endometrial cancer cells E-RL95-2; assay: Proliferation of human cancer cell panel; type: cell-based; conditions: read-out: inhibitory activity on proliferation
# From the text: as §1
# [12] = system: gastric cancer cells G-MKN-45; assay: Proliferation of human cancer cell panel; type: cell-based; conditions: read-out: inhibitory activity on proliferation
# From the text: as §1
# [13] = system: hepatoma cells L-BEL-7402; assay: Proliferation of human cancer cell panel; type: cell-based; conditions: read-out: inhibitory activity on proliferation
# From the text: as §1
# [14] = system: rhabdomyosarcoma cells S-RH30; assay: Proliferation of human cancer cell panel; type: cell-based; conditions: read-out: inhibitory activity on proliferation
# From the text: as §1
# [15] = system: human neuroglioma U87-MG xenograft; assay: Growth of U87-MG xenograft subcutaneously transplanted in nude mouse; type: in vivo; conditions: 50 mg/kg p.o. once a day
# Method: Well-developed tumors in nude mice were cut into 1.5 mm3 fragments and transplanted s.c. into the right flank of nude mice under sterile conditions. The diameters of subcutaneously transplanted tumours in nude mice were measured with a vernier calipe. […] Control groups were given the same amount of blank solvent, and treatment groups received tested compounds (p.o.). Compounds were administrated once a day for three weeks. Throughout the experiment, the sizes of the tumours were measured twice per week and meanwile the body weights of mice were weighed. The tumour volume (TV) was calculated as follows: TV=½×a×b2, wherein a and b represent the length and width, respectively. The individual relative tumour volume (RTV) was calculated as follows: RTV=Vt/V0, where V0 is the volume at the beginning of the treatment and Vt is the volume measured every time. Evaluation index of antitumor activity was relative tumor proliferation rate T/C (%), the calculation formula of which was as follows: T/C (%)=(TRTV/CRTV)×100%, TRTV:RTV of treatment group; CRTV:RTV of negative control group.
# PI3Kα, sequence (P42336 whole entry): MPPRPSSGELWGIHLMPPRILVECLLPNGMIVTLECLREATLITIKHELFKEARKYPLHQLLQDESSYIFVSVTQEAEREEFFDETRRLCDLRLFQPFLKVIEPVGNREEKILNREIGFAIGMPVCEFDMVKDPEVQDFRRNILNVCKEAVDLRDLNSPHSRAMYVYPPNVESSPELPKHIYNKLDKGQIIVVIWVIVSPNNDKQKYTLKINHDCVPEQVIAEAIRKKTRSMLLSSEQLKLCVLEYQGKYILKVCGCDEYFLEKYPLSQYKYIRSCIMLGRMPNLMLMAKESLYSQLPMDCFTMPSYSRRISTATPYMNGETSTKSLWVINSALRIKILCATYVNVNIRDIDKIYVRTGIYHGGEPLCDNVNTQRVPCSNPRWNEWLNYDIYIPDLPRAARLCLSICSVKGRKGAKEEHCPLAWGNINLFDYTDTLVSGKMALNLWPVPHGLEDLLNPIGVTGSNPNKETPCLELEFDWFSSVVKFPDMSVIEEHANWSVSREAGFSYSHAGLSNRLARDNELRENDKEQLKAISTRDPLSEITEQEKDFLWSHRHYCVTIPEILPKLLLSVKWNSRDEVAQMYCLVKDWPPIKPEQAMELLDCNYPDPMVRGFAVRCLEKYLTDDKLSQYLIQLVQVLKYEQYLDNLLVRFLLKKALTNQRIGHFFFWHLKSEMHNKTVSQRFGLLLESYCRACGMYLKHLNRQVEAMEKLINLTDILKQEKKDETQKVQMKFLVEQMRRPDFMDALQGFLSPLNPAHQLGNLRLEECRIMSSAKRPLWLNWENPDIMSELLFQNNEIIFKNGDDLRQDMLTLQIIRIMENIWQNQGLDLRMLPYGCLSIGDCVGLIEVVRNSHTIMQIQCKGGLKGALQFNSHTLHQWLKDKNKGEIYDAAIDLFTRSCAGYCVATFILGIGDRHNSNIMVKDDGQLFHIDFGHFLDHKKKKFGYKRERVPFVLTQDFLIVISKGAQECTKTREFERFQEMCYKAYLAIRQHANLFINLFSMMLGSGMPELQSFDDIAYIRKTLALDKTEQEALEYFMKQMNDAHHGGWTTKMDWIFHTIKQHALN
# PI3Kα, sequence (P27986 whole entry partner): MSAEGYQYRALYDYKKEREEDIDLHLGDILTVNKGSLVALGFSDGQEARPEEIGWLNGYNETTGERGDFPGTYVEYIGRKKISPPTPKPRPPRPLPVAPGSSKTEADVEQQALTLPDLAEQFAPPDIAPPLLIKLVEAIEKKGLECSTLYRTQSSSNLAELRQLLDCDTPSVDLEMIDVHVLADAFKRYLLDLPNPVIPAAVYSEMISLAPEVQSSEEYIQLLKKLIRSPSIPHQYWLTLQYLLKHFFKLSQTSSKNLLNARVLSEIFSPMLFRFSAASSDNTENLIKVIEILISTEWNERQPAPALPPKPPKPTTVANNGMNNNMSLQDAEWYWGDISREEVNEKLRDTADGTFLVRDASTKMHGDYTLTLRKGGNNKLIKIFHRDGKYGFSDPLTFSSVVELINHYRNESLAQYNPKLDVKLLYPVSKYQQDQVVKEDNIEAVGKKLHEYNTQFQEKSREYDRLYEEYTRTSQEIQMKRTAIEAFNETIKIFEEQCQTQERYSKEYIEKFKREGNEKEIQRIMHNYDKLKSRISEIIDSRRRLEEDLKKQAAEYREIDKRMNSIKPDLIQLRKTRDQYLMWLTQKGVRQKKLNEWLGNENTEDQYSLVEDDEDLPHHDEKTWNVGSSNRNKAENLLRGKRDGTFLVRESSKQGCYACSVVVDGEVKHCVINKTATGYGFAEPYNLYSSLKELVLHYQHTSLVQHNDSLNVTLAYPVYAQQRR
Structure (SMILES),pIC50 [3],pIC50 [4],pIC50 [5],pIC50 [6],pIC50 [7],pIC50 [8],pIC50 [9],pIC50 [10],pIC50 [11],pIC50 [12],pIC50 [13],pIC50 [14],other results
"CCNC(=O)Nc1cc(C(F)(F)F)c(-c2nc(N3CCOCC3)c3cc(CN4CCN(S(C)(=O)=O)CC4)cn3n2)cn1 [Compound I-30, 1-ethyl-3-(5-(6-((4-(methylsulfonyl)piperazin-1-yl)methyl)-4-morpholinopyrrolo[2,1-f][1,2,4]triazin-2-yl)-4-(trifluoromethyl)pyridin-2-yl)urea]",7.49,5.60,6.05,6.18,7.34,6.22,5.01,6.31,5.70,5.81,5.49,6.59,pIC50 [1]: 8.09; pIC50 [2]: 6.09
"CS(=O)(=O)N1CCN(Cc2cc3nc(-c4cccc5[nH]ncc45)nc(N4CCOCC4)c3s2)CC1 [GDC0941, reference compound]",6.59,6.28,5.92,5.78,6.50,6.20,5.09,6.29,5.66,5.78,5.49,6.32,Relative tumor proliferation rate T/C ([15]; d0): 100.00%; Relative tumor proliferation rate T/C ([15]; d3): 75.12%; Relative tumor proliferation rate T/C ([15]; d7): 79.34%; Relative tumor proliferation rate T/C ([15]; d10): 74.75%; Relative tumor proliferation rate T/C ([15]; d14): 56.86%; Relative tumor proliferation rate T/C ([15]; d17): 53.57%; Relative tumor proliferation rate T/C ([15]; d21): 51.40%
